Laboratory results published in patent publication US8598202B2, “Aryl-hydroxyethylamino-pyrimidines and triazines as modulators of fatty acid amide hydrolase” (Janssen Pharmaceutica NV, priority 2008, dated 2013).
Counter-ions that a name gives are not always drawn. Like-named read-outs stand apart in the source and are kept apart here.

Key:
[1] = biological target: T1, Rat FAAH-1 (Rattus norvegicus, UniProt P97612); assay: Assay Method 2: rat FAAH-1 assay, 3H-anandamide hydrolysis in homogenate of SK-N-MC cells transfected with rat FAAH
T1 sequence (P97612 1-579): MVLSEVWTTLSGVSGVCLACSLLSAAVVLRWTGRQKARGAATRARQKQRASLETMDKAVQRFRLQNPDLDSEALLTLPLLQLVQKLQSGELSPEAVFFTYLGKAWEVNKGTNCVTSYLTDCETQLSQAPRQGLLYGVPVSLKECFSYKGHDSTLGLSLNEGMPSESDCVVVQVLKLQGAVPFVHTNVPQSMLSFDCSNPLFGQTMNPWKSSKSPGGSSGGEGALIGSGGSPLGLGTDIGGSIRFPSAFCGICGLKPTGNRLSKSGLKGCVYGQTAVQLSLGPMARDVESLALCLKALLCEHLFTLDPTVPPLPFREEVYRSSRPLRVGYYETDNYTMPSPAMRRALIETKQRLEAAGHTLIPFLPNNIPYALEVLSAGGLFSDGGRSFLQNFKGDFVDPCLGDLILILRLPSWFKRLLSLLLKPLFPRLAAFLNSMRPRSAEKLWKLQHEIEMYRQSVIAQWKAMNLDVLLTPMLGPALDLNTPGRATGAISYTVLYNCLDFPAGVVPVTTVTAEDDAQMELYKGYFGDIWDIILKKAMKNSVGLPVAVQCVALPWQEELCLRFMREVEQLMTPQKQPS
Method: The assay mixture consisted of 50 μL of the cell homogenate, 10 μL of the test compound, and 40 μL of anandamide [1-^3H-ethanolamine] (^3H-AEA, Perkin-Elmer, 10.3 Ci/mmol), which was added last, for a final tracer concentration of 80 nM. The reaction mixture was incubated at rt for 1 h. During the incubation, 96-well Multiscreen filter plates (catalog number MAFCNOB50; Millipore, Bedford, Mass., USA) were loaded with 25 μL of activated charcoal (Multiscreen column loader, catalog number MACL09625, Millipore) and washed once with 100 μL of MeOH. […] After the 1 h incubation, 60 μL of the reaction mixture were transferred to the charcoal plates, which were then assembled on top of the DYNEX plates using Centrifuge Alignment Frames (catalog number MACF09604, Millipore). The unbound labeled ethanolamine was centrifuged through to the bottom plate (5 min at 2000 rpm), which was preloaded with the scintillant, as described above. The plates were sealed and left at rt for 1 h before counting on a Hewlett Packard TopCount.

[2] = biological target: T2, FAAH (Homo sapiens, UniProt O00519); assay: Assay Method 1: FAAH assay, 3H-anandamide hydrolysis in homogenate of T84 cells or SK-N-MC cells transfected with human FAAH
T2 sequence (O00519 1-579): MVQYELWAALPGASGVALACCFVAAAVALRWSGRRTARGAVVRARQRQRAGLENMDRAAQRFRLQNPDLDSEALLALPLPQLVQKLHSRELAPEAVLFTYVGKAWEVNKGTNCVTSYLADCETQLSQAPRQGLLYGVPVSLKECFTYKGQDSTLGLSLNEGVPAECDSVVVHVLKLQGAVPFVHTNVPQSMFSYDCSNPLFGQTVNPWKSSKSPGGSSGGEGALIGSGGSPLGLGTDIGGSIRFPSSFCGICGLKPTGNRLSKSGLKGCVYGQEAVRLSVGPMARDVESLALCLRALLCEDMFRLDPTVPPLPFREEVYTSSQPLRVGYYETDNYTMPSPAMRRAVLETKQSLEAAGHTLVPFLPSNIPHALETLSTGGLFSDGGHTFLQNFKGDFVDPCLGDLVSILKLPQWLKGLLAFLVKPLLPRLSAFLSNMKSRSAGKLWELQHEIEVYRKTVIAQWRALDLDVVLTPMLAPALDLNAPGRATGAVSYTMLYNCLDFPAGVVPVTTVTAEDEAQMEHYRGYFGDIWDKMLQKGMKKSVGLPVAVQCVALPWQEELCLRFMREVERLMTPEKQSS

Row | Compound | IC50 [1] [nM] | IC50 [2] [nM] | IC50 ([1]; read-out: Assay 2 IC50, Table 2, Comparative Examples, rat FAAH-1) [nM] | IC50 ([2]; read-out: Assay 1 IC50, Table 2, Comparative Examples, human FAAH) [nM]
1 | CC(C)Oc1ccc(-c2cc(NC[C@H](O)c3ccccc3)ncn2)cc1Cl [Example 19, (1R)-2-[(6-{3-Chloro-4-[(1-methylethyl)oxy]phenyl}pyrimidin-4-yl)amino]-1-phenylethanol] | 12 | 20 |  | 
2 | O=[N+]([O-])c1cccc(-c2cc(NCC(O)c3ccccc3)ncn2)c1 (stereo not drawn) [Example 234, 2-[6-(3-Nitro-phenyl)-pyrimidin-4-ylamino]-1-phenyl-ethanol] | > 10000 | > 10000 |  | 
3 | CN(C)c1ccc(-c2cc(NC[C@H](O)c3ccccc3)ncn2)cn1 [Example 78, (1R)-2-({6-[6-(Dimethylamino)pyridin-3-yl]pyrimidin-4-yl}amino)-1-phenylethanol] | > 10000 | 633 |  | 
4 | CS(=O)(=O)c1ccc(-c2cc(NC[C@H](O)c3ccccc3)ncn2)cc1 [Example 66, (1R)-2-({6-[4-(Methylsulfonyl)phenyl]pyrimidin-4-yl}amino)-1-phenylethanol] | 140 | 73 |  | 
5 | COc1ccccc1C(O)CNc1cc(-c2ccc(OC(F)(F)F)cc2)ncn1 (stereo not drawn) [Example 118, 1-[2-(Methyloxy)phenyl]-2-[(6-{4-[(trifluoromethyl)oxy]phenyl}-pyrimidin-4-yl)amino]ethanol] | > 10000 | 93 |  | 
6 | O[C@@H](CNc1cc(-c2ccc(Cl)c(Cl)c2)ncn1)c1ccccc1 [Example 95, (1R)-2-{[6-(3,4-Dichlorophenyl)-pyrimidin-4-yl]amino}-1-phenylethanol] | 66 | 18 |  | 
7 | OC(CNc1cc(-c2ccc(C(F)(F)F)c(Cl)c2)ncn1)c1cc(C(F)(F)F)cc(C(F)(F)F)c1 (stereo not drawn) [Example 217, 1-[3,5-Bis(trifluoromethyl)phenyl]-2-({6-[3-chloro-4-(trifluoromethyl)phenyl]pyrimidin-4-yl}amino)ethanol] | 8000 | > 10000 |  | 
8 | CCCOc1ccc(-c2cc(NC[C@H](O)c3ccccc3)ncn2)cc1F [Example 35, (1R)-2-{[6-(3-Fluoro-4-propoxyphenyl)pyrimidin-4-yl]amino}-1-Phenylethanol trifluoroacetic acid salt] | 180 | 43 |  | 
9 | O[C@@H](CNc1cc(-c2ccc3c(C(F)(F)F)noc3c2)ncn1)c1ccccc1 [Example 182, (1R)-1-Phenyl-2-({6-[3-(trifluoromethyl)-1,2-benzisoxazol-6-yl]pyrimidin-4-yl}amino)ethanol] | 4 | 10 |  | 
10 | CSc1cccc(-c2cc(NC[C@H](O)c3ccccc3)ncn2)c1 [Example 84, (1R)-2-({6-[3-(Methylsulfanyl)phenyl]pyrimidin-4-yl}amino)-1-phenylethanol trifluoroacetic acid salt] | 965 | 44 |  | 
11 | O[C@@H](CNc1cc(-c2ccc3c(C(F)(F)F)csc3c2)ncn1)c1ccccc1 [Example 221] | 480 | 19 |  | 
12 | Cc1cc(C)cc(-c2cc(NC[C@H](O)c3ccccc3)ncn2)c1 [Example 40, (1R)-2-{[6-(3,5-Dimethylphenyl)pyrimidin-4-yl]amino}-1-phenylethanol trifluoroacetic acid salt] | > 10000 | 766 |  | 
13 | CC(C)Oc1ccc(-c2cc(NCC(O)c3ccccc3)ncn2)cc1 (stereo not drawn) [Example 12, 2-[(6-{4-[(1-Methylethyl)oxy]phenyl}pyrimidin-4-yl)amino]-1-phenylethanol] | 382 | 186 |  | 
14 | O=S(=O)(c1ccc(-c2cc(NC[C@H](O)c3ccccc3)ncn2)cc1)N1CCSCC1 [Example 172, (1R)-1-Phenyl-2-({6-[4-(thiomorpholin-4-ylsulfonyl)phenyl]pyrimidin-4-yl}amino)ethanol] | 1500 | 8000 |  | 
15 | OC(CNc1cc(-c2cccs2)ncn1)c1ccccc1 (stereo not drawn) [Example 244, 1-Phenyl-2-(6-thiophen-2-yl-pyrimidin-4-ylamino)-ethanol] | > 10000 | > 10000 |  | 
16 | Cc1cc(-c2cc(NC[C@H](O)c3ccccc3)ncn2)ccc1Cl [Example 26, (1R)-2-{[6-(4-Chloro-3-methylphenyl)pyrimidin-4-yl]amino}-1-phenylethanol trifluoroacetic acid salt] | 163 | 52 |  | 
17 | OC(CNc1cc(-c2cccs2)ncn1)c1ccccc1 (stereo not drawn) [CE5, 1-Phenyl-2-(6-thiophen-2-yl-pyrimidin-4-ylamino)-ethanol, reference compound] |  |  | > 10000 | > 10000

Other lines, results leading:

Row | IC50 [1] [nM] | IC50 [2] [nM] | IC50 ([1]; read-out: Assay 2 IC50, Table 2, Comparative Examples, rat FAAH-1) [nM] | IC50 ([2]; read-out: Assay 1 IC50, Table 2, Comparative Examples, human FAAH) [nM] | Compound
18 | 160 | 36 |  |  | OC(CNc1cc(-c2ccc(C(F)(F)F)c(Cl)c2)ncn1)c1cc(-c2ccc(Cl)cc2)no1 (stereo not drawn) [Example 214, 1-[3-(4-Chloro-phenyl)-isoxazol-5-yl]-2-[6-(3-chloro-4-trifluoromethyl-Phenyl)-pyrimidin-4-ylamino]-ethanol]
19 | 7 | 20 |  |  | CCNc1nc(NC[C@H](O)c2ccccc2)cc(-c2ccc(C(F)(F)F)c(Cl)c2)n1 [Example 159, (1R)-2-({6-[3-Chloro-4-(trifluoromethyl)phenyl]-2-(ethylamino)pyrimidin-4-yl}amino)-1-phenylethanol trifluoroacetic acid salt]
20 | 1000 | 92 |  |  | O[C@@H](CNc1cc(-c2ccc(OCC3CC3)cc2)ncn1)c1ccccc1 [Example 32, (1R)-2-({6-[4-(Cyclopropylmethoxy)phenyl]pyrimidin-4-yl}amino)-1-phenylethanol trifluoroacetic acid salt]
21 | 5000 | 920 |  |  | CC(C)c1nc(NC[C@H](O)c2ccccc2)cc(-c2ccc(Cl)c(Cl)c2)n1 [Example 137, (1R)-2-{[6-(3,4-Dichlorophenyl)-2-(1-methylethyl)pyrimidin-4-yl]amino}-1-phenylethanol]
22 | 58 | 130 |  |  | O[C@@H](CNc1ncnc(-c2ccc(C(F)(F)F)c(Cl)c2)n1)c1ccccc1 [Example 104, (1R)-2-({4-[3-Chloro-4-(trifluoromethyl)phenyl]-1,3,5-triazin-2-yl}amino)-1-phenylethanol trifluoroacetic acid salt]
23 | 665 | 68 |  |  | O=S(=O)(c1ccc(-c2cc(NC[C@H](O)c3ccccc3)ncn2)cc1)N1CCCC1 [Example 80, (1R)-1-Phenyl-2-({6-[4-(Pyrrolidin-1-ylsulfonyl)phenyl]pyrimidin-4-yl}amino)ethanol]
24 | 128 | 11 |  |  | CSc1ccc(-c2cc(NCC(O)c3ccccc3)ncn2)cc1 (stereo not drawn) [Example 225, 2-[6-(4-Methylsulfanyl-phenyl)-Pyrimidin-4-ylamino]-1-phenyl-ethanol]
25 | 40 | 2 |  |  | Cc1ccc2sc(-c3cc(NC[C@H](O)c4ccccc4)ncn3)cc2c1 [Example 56, (1R)-2-{[6-(5-Methyl-1-benzothiophen-2-yl)pyrimidin-4-yl]amino}-1-phenylethanol]
26 | > 10000 | > 10000 |  |  | OC(CNc1cc(-c2ccc(C(F)(F)F)c(Cl)c2)ncn1)c1nc2ccccc2s1 (stereo not drawn) [Example 216, 1-Benzothiazol-2-yl-2-[6-(3-chloro-4-trifluoromethyl-phenyl)-pyrimidin-4-ylamino]-ethanol]
27 | 20 | 7 |  |  | O[C@@H](CNc1cc(-c2ccc(OC(F)(F)F)c(Cl)c2)ncn1)c1ccccc1 [Example 181, (1R)-2-({6-[3-Chloro-4-(trifluoromethoxy)phenyl]pyrimidin-4-yl}amino)-1-phenylethanol]
